Results on three molecules are retold here after publication PMC10382584, “Macrocyclization of linear molecules by deep learning to facilitate macrocyclic drug candidates discovery” (Nature Communications, 2023).

Series [1] can be described thus: Chemical stability in DMSO stock solution (HPLC purity). The following applies: mean±SD. Format: physicochemical. From the text: compounds were formulated in the solubilizing vehicle (5% DMSO/30% PEG400/65% […]
safety to the mice in the test.
6. What was the sample dissolved in for the in vitro and in vivo experiments? Response: The solvent information for the in vitro and in vivo experiments has been added in the revised manuscript. […]
7. Was the stability of the different compounds assessed and compared to Fedratinib? This is generally a critical point in macrocyclic studies. […]
in DMSO stock solution. Test compounds were incubated at room temperature and 60 ℃, respectively, for 72 h, and their purities (%) were determined using HPLC equipped with a CORTECS C18 column (4.6*50 mm, 2.7 μm particle size) and a UV/VIS detector setting of λ=210 nm. All co mpounds were eluted with the two solvent systems ([…] as organic phase in Method I and CH3OH as organic phase in Method II) at a flow rate of 0.3 ml/min. Each experiment repeated for three times and the results are represented as mean±SD.
Ta b e l R 1 . Comparison of chemical stability of different compounds at room temperature and 60 ℃, respectively.

Another series has as its target T1, JAK2 (Homo sapiens, UniProt O60674).
T1 construct: 0.05–0.42 ng JAK2, 2 μM peptide substrate (Tyr06)
In words: JAK2 enzyme assay (Z'-LYTE kinase assay kit). Format: biochemical.

The next series concerns the target T2, CDK4-cyclinD3 (Homo sapiens, UniProt P11802).
T2 construct: cyclinD3
In words: biochemical. More on the design: DiscoveRx KINOMEscan competition binding, percent of DMSO control signal at 100 nM. The following applies: read-out: Fig. 4a / Percent Control / Compound 1; percent of DMSO control, competition binding.

The target in another series is CSNK1G1 (Homo sapiens, UniProt Q9HCP0). In words: biochemical. Also on record: DiscoveRx KINOMEscan competition binding, percent of DMSO control signal at 100 nM. The following applies: read-out: Fig. 4a / Percent Control / Compound 1; percent of DMSO control, competition binding.
In a further series the target is CSNK1G2 (Homo sapiens, UniProt P78368). In words: biochemical. More on the design: DiscoveRx KINOMEscan competition binding, percent of DMSO control signal at 100 nM. The conditions noted are these: read-out: Fig. 4a / Percent Control / Compound 1; percent of DMSO control, competition binding.
In a further series the target is CSNK2A2 (Homo sapiens, UniProt P19784). Put plainly: biochemical. The conditions noted are these: read-out: Fig. 4a / Percent Control / Compound 1; percent of DMSO control, competition binding. More on the design: DiscoveRx KINOMEscan competition binding, percent of DMSO control signal at 100 nM.
The target of a further series is FRK (Homo sapiens, UniProt P42685). Put plainly: biochemical. Also on record: DiscoveRx KINOMEscan competition binding, percent of DMSO control signal at 100 nM. The following applies: read-out: Fig. 4a / Percent Control / Compound 1; percent of DMSO control, competition binding.
The target in a further series is T3, IKK-beta (Homo sapiens, UniProt O14920).
T3 construct: gene IKBKB
In words: biochemical. Also on record: DiscoveRx KINOMEscan competition binding, percent of DMSO control signal at 100 nM. The conditions noted are these: read-out: Fig. 4a / Percent Control / Compound 1; percent of DMSO control, competition binding.

Another series addresses T4, JNK1 (Homo sapiens, UniProt P45983).
T4 construct: gene MAPK8
In words: biochemical. Also on record: DiscoveRx KINOMEscan competition binding, percent of DMSO control signal at 100 nM. The conditions noted are these: read-out: Fig. 4a / Percent Control / Compound 1; percent of DMSO control, competition binding.

A further series deals with KIT(V559D) (Homo sapiens, UniProt P10721, V559D). In words: biochemical. The conditions noted are these: read-out: Fig. 4a / Percent Control / Compound 1; percent of DMSO control, competition binding. More on the design: DiscoveRx KINOMEscan competition binding, percent of DMSO control signal at 100 nM.
In another series the target is LIMK1 (Homo sapiens, UniProt P53667). Put plainly: biochemical. More on the design: DiscoveRx KINOMEscan competition binding, percent of DMSO control signal at 100 nM. The following applies: read-out: Fig. 4a / Percent Control / Compound 1; percent of DMSO control, competition binding.
Another series deals with T5, MEK4 (Homo sapiens, UniProt P45985).
T5 construct: gene MAP2K4
In words: biochemical. More on the design: DiscoveRx KINOMEscan competition binding, percent of DMSO control signal at 100 nM. The conditions noted are these: read-out: Fig. 4a / Percent Control / Compound 1; percent of DMSO control, competition binding.

The target of a further series is T6, MST4 (Homo sapiens, UniProt Q9P289).
T6 construct: gene STK26
Put plainly: biochemical. Also on record: DiscoveRx KINOMEscan competition binding, percent of DMSO control signal at 100 nM. The following applies: read-out: Fig. 4a / Percent Control / Compound 1; percent of DMSO control, competition binding.

Another series deals with PRKG1 (Homo sapiens, UniProt Q13976). Put plainly: biochemical. Also on record: DiscoveRx KINOMEscan competition binding, percent of DMSO control signal at 100 nM. The conditions noted are these: read-out: Fig. 4a / Percent Control / Compound 1; percent of DMSO control, competition binding.
Another series has as its target T7, QSK (Homo sapiens, UniProt Q9Y2K2).
T7 construct: gene SIK3
Put plainly: biochemical. Also on record: DiscoveRx KINOMEscan competition binding, percent of DMSO control signal at 100 nM. The conditions noted are these: read-out: Fig. 4a / Percent Control / Compound 1; percent of DMSO control, competition binding.

Series [2] addresses T8, RSK4(Kin.Dom.1-N-terminal) (Homo sapiens, UniProt Q9UK32).
T8 construct: gene RPS6KA6; Kin.Dom.1-N-terminal
Put plainly: biochemical. More on the design: DiscoveRx KINOMEscan competition binding, percent of DMSO control signal at 100 nM. The following applies: read-out: Fig. 4a / Percent Control / Compound 1; percent of DMSO control, competition binding.

For another series, the target named is SGK2 (Homo sapiens, UniProt Q9HBY8). Put plainly: biochemical. More on the design: DiscoveRx KINOMEscan competition binding, percent of DMSO control signal at 100 nM. The following applies: read-out: Fig. 4a / Percent Control / Compound 1; percent of DMSO control, competition binding.
In a further series the target is SYK (Homo sapiens, UniProt P43405). Put plainly: biochemical. Also on record: DiscoveRx KINOMEscan competition binding, percent of DMSO control signal at 100 nM. The conditions noted are these: read-out: Fig. 4a / Percent Control / Compound 1; percent of DMSO control, competition binding.
Another series deals with TNIK (Homo sapiens, UniProt Q9UKE5). Put plainly: biochemical. Also on record: DiscoveRx KINOMEscan competition binding, percent of DMSO control signal at 100 nM. The following applies: read-out: Fig. 4a / Percent Control / Compound 1; percent of DMSO control, competition binding.
A further series deals with TNK1 (Homo sapiens, UniProt Q13470). Put plainly: biochemical. Also on record: DiscoveRx KINOMEscan competition binding, percent of DMSO control signal at 100 nM. The following applies: read-out: Fig. 4a / Percent Control / Compound 1; percent of DMSO control, competition binding.
Where [3] appears, read: JAK2, 25 μM ATP, mean ± SD, n = 3, read-out: Enzyme Inhibitory Activity (IC50).
Setting [4] is: JAK2 enzyme, mean of 3 replicates, read-out: IC50/μM mean, enzyme inhibitory activity.
The mark [5] stands for this setting: JAK2 enzyme, mean ± SD of 3 replicates, read-out: IC50/μM mean ± SD, enzyme inhibitory activity.
Where [6] appears, read: JAK2 enzyme, single-replicate fits (replicates 1-3), read-out: IC50/μM (individual replicates), enzyme inhibitory activity.

Several values for one entry are separate records, joined by “and”; a condition that tells them apart may be missing. Equal values may be shown once. Read-outs that look alike come from different tables or passages of the source.

T1 sequence (O60674 whole entry): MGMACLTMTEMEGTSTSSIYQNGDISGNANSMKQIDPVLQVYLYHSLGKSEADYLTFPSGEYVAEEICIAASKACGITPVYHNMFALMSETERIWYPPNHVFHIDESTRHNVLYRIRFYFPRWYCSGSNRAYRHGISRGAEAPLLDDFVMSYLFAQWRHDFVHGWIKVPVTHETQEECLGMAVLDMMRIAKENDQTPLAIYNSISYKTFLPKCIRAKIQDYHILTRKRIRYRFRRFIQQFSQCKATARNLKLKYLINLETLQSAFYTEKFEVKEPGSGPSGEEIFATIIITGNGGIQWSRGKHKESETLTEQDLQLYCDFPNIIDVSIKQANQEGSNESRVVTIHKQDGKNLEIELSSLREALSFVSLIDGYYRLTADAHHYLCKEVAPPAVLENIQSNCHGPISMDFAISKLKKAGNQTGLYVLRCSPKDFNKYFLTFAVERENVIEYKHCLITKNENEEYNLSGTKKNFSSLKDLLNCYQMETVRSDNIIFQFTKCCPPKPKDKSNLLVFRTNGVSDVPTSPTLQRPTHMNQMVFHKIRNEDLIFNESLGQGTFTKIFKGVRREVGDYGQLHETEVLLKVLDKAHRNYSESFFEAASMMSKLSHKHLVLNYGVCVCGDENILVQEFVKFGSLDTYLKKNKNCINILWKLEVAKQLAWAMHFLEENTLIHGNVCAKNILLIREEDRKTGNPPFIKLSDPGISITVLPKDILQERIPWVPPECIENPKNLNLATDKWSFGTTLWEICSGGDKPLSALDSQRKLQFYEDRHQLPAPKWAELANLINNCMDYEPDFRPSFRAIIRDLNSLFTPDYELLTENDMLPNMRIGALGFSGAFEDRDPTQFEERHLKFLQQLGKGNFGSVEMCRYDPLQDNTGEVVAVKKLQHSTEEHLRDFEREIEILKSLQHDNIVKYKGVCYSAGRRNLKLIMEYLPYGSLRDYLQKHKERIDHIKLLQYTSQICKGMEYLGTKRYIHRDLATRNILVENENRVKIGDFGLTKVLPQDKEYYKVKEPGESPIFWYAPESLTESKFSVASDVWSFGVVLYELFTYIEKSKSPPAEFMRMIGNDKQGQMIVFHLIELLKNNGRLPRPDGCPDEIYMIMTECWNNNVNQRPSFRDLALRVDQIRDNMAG
T7 sequence (Q9Y2K2 whole entry): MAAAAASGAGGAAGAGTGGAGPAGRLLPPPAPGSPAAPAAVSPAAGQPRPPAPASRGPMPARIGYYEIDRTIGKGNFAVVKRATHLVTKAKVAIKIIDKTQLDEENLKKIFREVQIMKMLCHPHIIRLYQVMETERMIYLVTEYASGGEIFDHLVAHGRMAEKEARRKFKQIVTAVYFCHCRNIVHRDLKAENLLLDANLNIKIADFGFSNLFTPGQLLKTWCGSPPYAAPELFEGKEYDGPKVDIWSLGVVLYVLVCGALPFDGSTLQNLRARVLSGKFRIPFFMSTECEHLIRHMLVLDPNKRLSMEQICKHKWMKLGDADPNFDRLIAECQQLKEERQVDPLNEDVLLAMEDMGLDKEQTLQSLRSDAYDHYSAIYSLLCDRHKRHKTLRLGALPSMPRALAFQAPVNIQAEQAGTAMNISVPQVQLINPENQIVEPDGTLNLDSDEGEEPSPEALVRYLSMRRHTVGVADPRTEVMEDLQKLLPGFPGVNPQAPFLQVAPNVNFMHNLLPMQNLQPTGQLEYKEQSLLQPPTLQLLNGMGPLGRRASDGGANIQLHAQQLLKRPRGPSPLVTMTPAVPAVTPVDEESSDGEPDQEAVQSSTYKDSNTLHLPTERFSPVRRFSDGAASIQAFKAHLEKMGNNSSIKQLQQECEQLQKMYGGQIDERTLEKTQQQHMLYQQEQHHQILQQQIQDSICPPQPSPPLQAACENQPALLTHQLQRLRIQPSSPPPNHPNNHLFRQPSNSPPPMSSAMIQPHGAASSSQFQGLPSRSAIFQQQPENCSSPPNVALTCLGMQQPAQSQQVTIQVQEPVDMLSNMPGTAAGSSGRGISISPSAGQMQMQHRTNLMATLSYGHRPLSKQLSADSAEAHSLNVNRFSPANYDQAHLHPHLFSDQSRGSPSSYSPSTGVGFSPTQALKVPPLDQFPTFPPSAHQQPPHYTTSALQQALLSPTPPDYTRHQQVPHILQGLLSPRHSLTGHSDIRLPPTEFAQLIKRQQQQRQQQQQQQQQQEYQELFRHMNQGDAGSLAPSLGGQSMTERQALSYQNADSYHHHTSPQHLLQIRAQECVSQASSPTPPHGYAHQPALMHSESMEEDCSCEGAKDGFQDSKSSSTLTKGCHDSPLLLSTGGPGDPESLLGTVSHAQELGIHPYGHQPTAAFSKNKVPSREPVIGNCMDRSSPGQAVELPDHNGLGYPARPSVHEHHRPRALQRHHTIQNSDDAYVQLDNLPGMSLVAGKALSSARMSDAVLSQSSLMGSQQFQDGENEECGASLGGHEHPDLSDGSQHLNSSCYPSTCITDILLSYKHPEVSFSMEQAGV
T5 sequence (P45985 whole entry): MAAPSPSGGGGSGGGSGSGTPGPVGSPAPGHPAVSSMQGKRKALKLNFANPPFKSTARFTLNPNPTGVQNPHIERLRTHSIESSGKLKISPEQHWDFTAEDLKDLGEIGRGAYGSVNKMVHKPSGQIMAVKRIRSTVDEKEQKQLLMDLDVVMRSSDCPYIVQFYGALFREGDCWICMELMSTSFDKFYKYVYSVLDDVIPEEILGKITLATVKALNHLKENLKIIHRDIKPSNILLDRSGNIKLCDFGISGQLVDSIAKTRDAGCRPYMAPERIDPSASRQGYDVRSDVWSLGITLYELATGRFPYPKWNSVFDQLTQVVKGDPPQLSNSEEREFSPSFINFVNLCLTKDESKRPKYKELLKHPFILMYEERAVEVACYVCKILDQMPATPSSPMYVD
TNIK, sequence (Q9UKE5 whole entry): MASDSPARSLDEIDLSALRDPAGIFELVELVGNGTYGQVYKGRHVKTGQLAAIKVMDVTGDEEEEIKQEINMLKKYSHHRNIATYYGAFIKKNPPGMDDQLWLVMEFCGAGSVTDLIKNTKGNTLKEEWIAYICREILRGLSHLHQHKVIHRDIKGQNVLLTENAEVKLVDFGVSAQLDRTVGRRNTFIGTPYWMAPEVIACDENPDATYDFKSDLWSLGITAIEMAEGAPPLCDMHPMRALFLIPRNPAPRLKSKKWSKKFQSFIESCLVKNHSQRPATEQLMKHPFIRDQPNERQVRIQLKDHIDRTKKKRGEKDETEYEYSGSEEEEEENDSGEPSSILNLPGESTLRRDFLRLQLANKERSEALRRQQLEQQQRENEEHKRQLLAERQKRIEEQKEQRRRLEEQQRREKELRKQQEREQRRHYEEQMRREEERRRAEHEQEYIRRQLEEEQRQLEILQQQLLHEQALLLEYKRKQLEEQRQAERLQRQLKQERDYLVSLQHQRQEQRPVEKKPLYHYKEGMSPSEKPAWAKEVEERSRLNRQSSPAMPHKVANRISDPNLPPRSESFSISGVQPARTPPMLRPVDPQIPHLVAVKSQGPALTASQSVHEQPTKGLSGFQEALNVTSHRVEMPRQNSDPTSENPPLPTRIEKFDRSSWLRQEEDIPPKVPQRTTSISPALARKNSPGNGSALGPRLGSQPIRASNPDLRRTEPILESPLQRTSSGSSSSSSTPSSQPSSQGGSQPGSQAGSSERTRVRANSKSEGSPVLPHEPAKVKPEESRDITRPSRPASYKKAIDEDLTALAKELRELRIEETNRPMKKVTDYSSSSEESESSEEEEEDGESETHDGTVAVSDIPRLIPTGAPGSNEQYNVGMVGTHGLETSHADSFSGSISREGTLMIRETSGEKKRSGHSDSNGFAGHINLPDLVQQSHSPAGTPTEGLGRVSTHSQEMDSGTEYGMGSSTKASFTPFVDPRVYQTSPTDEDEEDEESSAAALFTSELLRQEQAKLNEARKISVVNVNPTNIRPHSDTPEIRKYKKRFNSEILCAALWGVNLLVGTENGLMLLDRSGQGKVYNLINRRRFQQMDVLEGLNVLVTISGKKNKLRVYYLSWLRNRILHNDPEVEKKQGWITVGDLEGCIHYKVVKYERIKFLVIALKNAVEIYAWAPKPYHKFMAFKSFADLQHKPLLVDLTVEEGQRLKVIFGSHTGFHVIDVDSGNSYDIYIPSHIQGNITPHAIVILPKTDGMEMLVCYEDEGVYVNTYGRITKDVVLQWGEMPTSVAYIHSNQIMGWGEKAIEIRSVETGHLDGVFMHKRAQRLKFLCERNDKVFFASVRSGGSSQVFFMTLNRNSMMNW
SGK2, sequence (Q9HBY8 whole entry): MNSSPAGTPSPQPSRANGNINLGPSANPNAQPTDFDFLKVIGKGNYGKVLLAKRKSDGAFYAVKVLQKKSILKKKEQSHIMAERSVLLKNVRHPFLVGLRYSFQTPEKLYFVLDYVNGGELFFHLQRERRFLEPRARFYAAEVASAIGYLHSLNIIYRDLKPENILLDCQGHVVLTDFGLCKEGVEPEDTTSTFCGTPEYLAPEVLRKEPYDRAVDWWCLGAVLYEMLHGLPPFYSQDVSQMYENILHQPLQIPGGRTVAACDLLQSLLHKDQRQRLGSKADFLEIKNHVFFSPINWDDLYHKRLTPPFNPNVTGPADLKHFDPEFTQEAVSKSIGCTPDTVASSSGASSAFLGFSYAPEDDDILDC
CSNK1G2, sequence (P78368 whole entry): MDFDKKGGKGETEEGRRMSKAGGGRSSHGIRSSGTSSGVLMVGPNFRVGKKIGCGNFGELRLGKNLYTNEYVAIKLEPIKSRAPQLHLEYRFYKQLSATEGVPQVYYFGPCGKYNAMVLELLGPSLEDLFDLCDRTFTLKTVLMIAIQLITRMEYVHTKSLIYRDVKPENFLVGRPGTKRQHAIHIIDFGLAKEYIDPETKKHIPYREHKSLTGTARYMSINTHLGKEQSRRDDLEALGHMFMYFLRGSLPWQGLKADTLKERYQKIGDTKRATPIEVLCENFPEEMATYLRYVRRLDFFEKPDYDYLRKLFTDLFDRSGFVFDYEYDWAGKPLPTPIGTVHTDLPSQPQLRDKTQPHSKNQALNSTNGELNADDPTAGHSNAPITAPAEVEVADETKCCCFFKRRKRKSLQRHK

For `Cc1cnc(Nc2ccc(OCCN3CCCC3)cc2)nc1Nc1cccc(S(=O)(=O)NC(C)(C)C)c1` [Fedratinib], the “purity after incubation in DMSO stock solution” value (from here on “purity after incubation”) is 98.91±0.10% in series [1] (60 ℃, 0 h); 98.91±0.10% in series [1] (60 ℃, 2 h); 98.89±0.17% in series [1] (60 ℃, 24 h); 100.00±0.00% in series [1] (60 ℃, 48 h); 98.96±0.15% in series [1] (60 ℃, 72 h); 99.36±0.06% in series [1] (Room Temperature, 0 h). The “purity after incubation” value was 99.11±0.14% in series [1] (Room Temperature, 2 h); 99.99±0.00% in series [1] (Room Temperature, 24 h); 99.08±0.02% in series [1] (Room Temperature, 48 h); 99.57±0.06% in series [1] (Room Temperature, 72 h).
On to `Cc1cnc2nc1Nc1cccc(c1)COCc1cc(ccc1OCCN1CCCC1)N2` [Compound 1], for which the IC50 on JAK2 (setting [3]) was 0.07 µM; on JAK2 (setting [4]) it was 0.07 µM; at JAK2 (setting [5]), 0.07 ± 0.006 µM; on JAK2 (setting [6]) it was 0.072 µM and 0.064 µM and 0.075 µM. Further, the remaining binding at 0.1 µM is 95% at CDK4-cyclinD3; 91% on CSNK1G1; 99% at CSNK1G2; 62% on CSNK2A2; 84% on FRK; 97% on IKK-beta. Besides, the remaining binding at 0.1 µM on JNK1 amounted to 50%; at KIT(V559D) it was 51%; on LIMK1, 88%; on MEK4, 92%; on MST4 it was 100%; at PRKG1, 100%. Also, the remaining binding at 0.1 µM was determined as 63% at QSK; 64% in series [2]; 97% on SGK2; 99% on SYK; 80% on TNIK; 38% at TNK1.
Consider `Cc1cnc2nc1Nc1cccc(c1)COCC=CCOCc1cc(ccc1OCCN1CCCC1)N2` [Compound 3], for which the IC50 at JAK2 (setting [3]) was 0.006 µM; on JAK2 (setting [4]), 0.006 µM; on JAK2 (setting [5]), 0.006 ± 0.001 µM; at JAK2 (setting [6]), 0.00662 µM and 0.00532 µM and 0.00569 µM. In addition, the “purity after incubation” value in series [1] (60 ℃, 0 h) worked out at 99.78±0.07%; in series [1] (60 ℃, 2 h) it was 99.46±0.04%; in [1] (60 ℃, 24 h), 99.64±0.04%; in [1] (60 ℃, 48 h) it was 99.66±0.06%; in series [1] (60 ℃, 72 h), 99.78±0.03%; in [1] (Room Temperature, 0 h) it was 99.68±0.05%. The “purity after incubation” value in [1] (Room Temperature, 2 h) is given as 99.77±0.01%; in [1] (Room Temperature, 24 h), 99.68±0.07%; in [1] (Room Temperature, 48 h) it was 99.63±0.02%; in series [1] (Room Temperature, 72 h), 99.64±0.10%.
